In the first experiment the test system is parasite. Kind of experiment: Parasite LDH growth assay (Parasite Assay), antiparasite potency. Conditions: 72 h, parasite LDH growth assay, ring stage parasites, 72 hours incubation at 37° C.; read-out: EC50. It is filed as cell-based. The method, then: Assessing Antiparasite Potency in a Parasite LDH Growth Assay (Parasite Assay)
The parasite stock was maintained at 4% haematocrit in RPMI-Hepes media buffered with sodium bicarbonate and supplemented with 5% heat inactivated human serum and 0.5% albumax.
On the day of assay set up, a blood smear of the parasite culture was Giemsa stained and counted. The parasitemia was adjusted to 0.7% rings and the haematocrit was diluted to 2% in RPMI-Hepes media buffered with sodium bicarbonate and supplemented with 5% heat inactivated human serum and 0.5% albumax. 30 ul of diluted parasites are then added into 10 ul of media+compound in pre-prepared Greiner TC assay plates. Parasite assay plates were placed in gassed humidified boxes in single layer and allowed to incubate at 37° C. for 72 hours. After 72 hours growth, assay plates are sealed with parafilm and frozen flat, in single file at −80° C. overnight. On the following day, assay plates are allowed to thaw at room temperature for 4 hours to which an LDH assay is performed to measure parasite growth.
Broadly, the EC50 is the concentration needed to bring the measured effect to its halfway point. As to `CCC1(CC)CC(=O)N([C@@H]2CC3(COC3)Oc3ccc(C(=O)N[C@@H]4c5ccccc5C[C@H]4O)cc32)C(=N)N1` [Example 23A, (R)-4-(4,4-diethyl-2-imino-6-oxotetrahydropyrimidin-1(2H)-yl)-N-((1R,2R)-2-hydroxy-2,3-dihydro-1H-inden-1-yl)spiro[chromane-2,3′-oxetane]-6-carboxamide], the EC50 is 5 nM.
As for `CCC1(CC)CC(=O)N([C@H]2CCS(=O)(=O)c3ccc(C(=O)N[C@@H]4c5ccccc5C[C@H]4O)cc32)C(=N)N1` [Example 223, (4S)-4-(4,4-diethyl-2-imino-6-oxo-hexahydropyrimidin-1-yl)-N-[(1R,2R)-2-hydroxyindan-1-yl]-1,1-dioxo-3,4-dihydro-2H-thiochromene-6-carboxamide], the EC50 was found to be 300 nM.
With `CC1(C)CC(=O)N([C@H]2c3cc(C(=O)N[C@@H]4c5ccccc5OC(C)(C)[C@H]4O)ccc3OC2(C)C)C(=N)N1` [Example 182, (3S)-N-[(3S,4R)-3-hydroxy-2,2-dimethyl-chroman-4-yl]-3-(2-imino-4,4-dimethyl-6-oxo-hexahydropyrimidin-1-yl)-2,2-dimethyl-3H-benzofuran-5-carboxamide], the EC50 was determined as 6.1 nM.
With `CCC1(CC)CC(=O)N([C@@H]2c3cc(C(=O)N[C@@H]4c5ccccc5OC(C)(C)[C@H]4O)ccc3OC[C@@]2(C)OC)C(=N)N1` [Example 295, (3S,4R)-4-(4,4-diethyl-2-imino-6-oxo-hexahydropyrimidin-1-yl)-N-[(3S,4R)-3-hydroxy-2,2-dimethyl-chroman-4-yl]-3-methoxy-3-methyl-chromane-6-carboxamide], the EC50 was 100 nM.
For `CC(C)[C@]1(C)CC(=O)N([C@@H]2CCOc3ccc(C(=O)N[C@H]4CC(C)(C)Oc5ccccc54)cc32)C(=N)N1` [Example 10A, (R)-N-((S)-2,2-dimethylchroman-4-yl)-4-((S)-2-imino-4-isopropyl-4-methyl-6-oxotetrahydropyrimidin-1(2H)-yl)chromane-6-carboxamide], the EC50 was found to be 0.5 nM.
Consider `CCC1(CC)CC(=O)N([C@@H]2CCOc3ccc(C(=O)N[C@H]4CC(C)(C)Oc5ccc(F)cc54)cc32)C(=N)N1` [Example 7A, (R)-4-(4,4-diethyl-2-imino-6-oxotetrahydropyrimidin-1(2H)-yl)-N-((S)-6-fluoro-2,2-dimethylchroman-4-yl)chromane-6-carboxamide], for which the concentration for a half-maximal effect (EC50) was found to be 0.4 nM.
On to `CC1(C)CC(=O)N([C@@H]2CC(F)(F)c3ccc(C(=O)N[C@@H]4c5ccccc5OC(C)(C)[C@H]4O)cc32)C(=N)N1` [Example 199, (3R)-1,1-difluoro-N-[(3S,4R)-3-hydroxy-2,2-dimethyl-chroman-4-yl]-3-(2-imino-4,4-dimethyl-6-oxo-hexahydropyrimidin-1-yl)indane-5-carboxamide], for which the EC50 is 1.1 nM.
On the same count and under the same terms, the result for `CCC1(CC)CC(=O)N([C@H]2c3cc(C(=O)N[C@@H]4c5ccccc5OC(C)(C)[C@H]4O)ccc3CC[C@@H]2OC)C(=N)N1` [Example 276, (3S,4S)-4-(4,4-diethyl-2-imino-6-oxo-hexahydropyrimidin-1-yl)-N-[(3S,4R)-3-hydroxy-2,2-dimethyl-chroman-4-yl]-3-methoxy-tetralin-6-carboxamide] reads 0.6 nM; that for `CCC1(CC)CC(=O)N(C2CCOc3ccc(C(=O)N[C@@H]4c5ccccc5OC(C)(C)[C@H]4O)cc32)C(=N)N1` (stereo partly drawn) [Example 2A, 4-(4,4-diethyl-2-imino-6-oxotetrahydropyrimidin-1(2H)-yl)-N-((3S,4R)-3-hydroxy-2,2-dimethylchroman-4-yl)chroman-6-carboxamide], 0.5 nM.
`CCC1(CC)CC(=O)N([C@@H]2C[C@@H](C)Oc3ccc(C(=O)N[C@@H]4c5ccccc5OC(C)(C)[C@H]4O)cc32)C(=N)N1` [Example 246, (2R,4R)-4-(4,4-diethyl-2-imino-6-oxo-hexahydropyrimidin-1-yl)-N-[(3S,4R)-3-hydroxy-2,2-dimethyl-chroman-4-yl]-2-methyl-chromane-6-carboxamide]: the EC50 is 2 nM.
`CCC1(CC)CC(=O)N([C@H]2c3cc(C(=O)N[C@H]4CC(C)(C)Oc5ccccc54)ccc3OC[C@@H]2OC)C(=N)N1` [Example 68A, (3R,4S)-4-(4,4-diethyl-2-imino-6-oxotetrahydropyrimidin-1(2H)-yl)-N-((S)-2,2-dimethylchroman-4-yl)-3-methoxychromane-6-carboxamide]: the EC50 was determined as 1 nM.
Take `CC[C@]1(C)CC(=O)N([C@H]2c3cc(C(=O)N[C@@H]4c5ccccc5OC(C)(C)[C@H]4O)ccc3OC[C@@H]2COC)C(=N)N1` [Example 277, (3S,4R)-4-[(4R)-4-ethyl-2-imino-4-methyl-6-oxo-hexahydropyrimidin-1-yl]-N-[(3S,4R)-3-hydroxy-2,2-dimethyl-chroman-4-yl]-3-(methoxymethyl)chromane-6-carboxamide]: the EC50 worked out at 0.4 nM.
Same read-out and setting: with `CCC1(CC)CC(=O)N([C@H]2c3cc(C(=O)N[C@@H]4c5ccccc5OC(C)(C)[C@H]4O)ccc3OC[C@H]2COC)C(=N)N1` [Example 298, (3R,4R)-4-(4,4-diethyl-2-imino-6-oxotetrahydropyrimidin-1(2H)-yl)-N-((3S,4R)-3-hydroxy-2,2-dimethylchroman-4-yl)-3-(methoxymethyl)chromane-6-carboxamide] the figure was 0.5 nM.
With `CC1(C)CC(=O)N([C@@H]2CCOc3ccc(C(=O)N[C@@H]4c5ccccc5OC(C)(C)[C@@]4(C)O)cc32)C(=N)N1` [Example 172, (4R)-N-[(3S,4R)-3-hydroxy-2,2,3-trimethyl-chroman-4-yl]-4-(2-imino-4,4-dimethyl-6-oxo-hexahydropyrimidin-1-yl)chromane-6-carboxamide], the EC50 came to 0.9 nM.
Same read-out and setting: the result for `CCC1(CC)CC(=O)N([C@H]2c3cc(C(=O)N[C@@H]4c5ccccc5OC(C)(C)[C@H]4O)ccc3OC[C@@H]2C)C(=N)N1` [Example 240, (3R,4R)-4-(4,4-diethyl-2-imino-6-oxo-hexahydropyrimidin-1-yl)-N-[(3S,4R)-3-hydroxy-2,2-dimethyl-chroman-4-yl]-3-methyl-chromane-6-carboxamide] reads 0.6 nM.

Staying with this experiment, now noted: parasite LDH growth assay, ring stage parasites, 72 hours incubation at 37° C.; read-out: EC50.
Take `CCC1(CC)CC(=O)N([C@@H]2CC(C)(C)Oc3ccc(C(=O)N[C@@H]4c5ccccc5CC4(C)O)cc32)C(=N)N1` (stereo partly drawn) [Example 42A, (4R)-4-(4,4-diethyl-2-imino-6-oxotetrahydropyrimidin-1(2H)-yl)-N-((1R)-2-hydroxy-2-methyl-2,3-dihydro-1H-inden-1-yl)-2,2-dimethylchromane-6-carboxamide]: the EC50 stood at 1 nM.
For the compound `CCC1(CC)CC(=O)N([C@@H]2CCOc3ccc(C(=O)NC4c5ccccc5OC(C)(C)C4(C)O)cc32)C(=N)N1` (stereo partly drawn) [Example 242A, (4R)-4-(4,4-diethyl-2-imino-6-oxo-hexahydropyrimidin-1-yl)-N-(3-hydroxy-2,2,3-trimethyl-chroman-4-yl)chromane-6-carboxamide], the EC50 worked out at 0.6 nM.
Consider `CCC1(CC)CC(=O)N([C@@H]2CC(COC)Oc3ccc(C(=O)N[C@H]4CC(C)(C)Oc5ccccc54)cc32)C(=N)N1` (stereo partly drawn) [Example 16A, (4R)-4-(4,4-diethyl-2-imino-6-oxotetrahydropyrimidin-1(2H)-yl)-N-((S)-2,2-dimethylchroman-4-yl)-2-(methoxymethyl)chromane-6-carboxamide], for which the EC50 stood at 0.6 nM.

Source of the values: patent publication US20230355622A1, “METHODS OF CHEMOVACCINATION AGAINST PLASMODIUM INFECTIONS” (Merck Sharp & Dohme LLC, priority 2020, published 2023).
